Data published in PMC11406361, “Several orphan solute carriers functionally identified as organic cation transporters: Substrates specificity compared with known cation transporters” (The Journal of Biological Chemistry, 2024).
Like-named read-outs stand apart in the source and are kept apart here.

Key:
[1] = target: T1, SLC47A1 (Homo sapiens, UniProt Q96FL8); test: Uptake ratio screen, SLC47A1-overexpressing HEK293 over empty vector cells; type: cell-based; settings: 2.5 μM, 2 min
T1 sequence (Q96FL8 1-570): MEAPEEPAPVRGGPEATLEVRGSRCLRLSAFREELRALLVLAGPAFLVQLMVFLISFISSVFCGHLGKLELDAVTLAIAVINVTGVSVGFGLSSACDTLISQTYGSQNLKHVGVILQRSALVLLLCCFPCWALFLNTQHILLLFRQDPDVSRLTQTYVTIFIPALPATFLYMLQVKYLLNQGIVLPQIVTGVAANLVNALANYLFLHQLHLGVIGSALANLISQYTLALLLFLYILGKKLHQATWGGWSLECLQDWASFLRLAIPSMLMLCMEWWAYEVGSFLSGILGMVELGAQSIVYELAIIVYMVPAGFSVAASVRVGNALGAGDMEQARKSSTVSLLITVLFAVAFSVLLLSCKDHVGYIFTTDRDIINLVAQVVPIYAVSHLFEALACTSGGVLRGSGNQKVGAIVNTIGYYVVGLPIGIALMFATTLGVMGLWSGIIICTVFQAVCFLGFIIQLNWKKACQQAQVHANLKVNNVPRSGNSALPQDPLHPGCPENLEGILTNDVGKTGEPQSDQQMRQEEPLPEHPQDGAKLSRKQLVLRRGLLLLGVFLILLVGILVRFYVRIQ
Experimental: (§1) Typically discussed substrates of the proton organic-cation antiporter ([14]) are highlighted in dark green in Figure 1.
(§2) In preparation for transport experiments, 24-well plates were pre-coated with poly-D-lysine (Sigma-Aldrich) and 300,000 cells were plated per well and incubated for 48 h. Firstly, the 24-well plate was placed on a heating plate at 37 °C, and the cells were washed with 37 °C HBSS^+ buffer (Hank’s balanced salt solution supplemented with 10 mM Hepes and adjusted to pH 7.4; Thermo Fisher Scientific). The substance-of-interest, which was diluted in 37 °C HBSS^+ to a desired concentration, was added to the cells for exactly 2 min. […] The uptake was stopped with ice-cold HBSS^+, and the 24-well plate was removed from the heating plate. The cells were washed twice with the cold HBSS^+ before they were lysed for 15 min with 80% (v/v) acetonitrile containing the respective internal standard for mass spectrometry. For variations in seeded cell numbers between the cell lines, several wells were lysed in RIPA buffer and used for total protein quantification using a bicinchoninic assay ([74]) and bovine serum albumin as calibration.
(§3) The intracellular drug concentrations after transport experiments were analyzed by high-performance liquid chromatography coupled to tandem mass spectrometry analysis. The HPLC consisted of a Shimadzu Nexera HPLC System with a SIL-30AC autosampler, a LC-30AD pump, a CTO-20AC column oven, and a CBM-20A controller (Shimadzu). The reverse-phase chromatography of compounds was accomplished with a Brownlee SPP RP-Amide column with 4.6 × 100 mm inner dimensions, a particle size of 2.7 μm, and a preceding Phenomenex C-18 guard column. […] After separation, the detection of substances was performed with an API 4000 tandem mass spectrometer (AB SCIEX, https://sciex.com/support/software-support/software-downloads), followed by quantification of results with the Analyst software (AB SCIEX, version 1.6.2). […]
(§4) Transport-mediated net uptake was determined as fold-increase of transporter-overexpressing cells over empty vector–transfected control cells.

[2] = target: SLC47A2 (Homo sapiens, UniProt Q86VL8); test: Uptake ratio screen, SLC47A2-overexpressing HEK293 over empty vector cells; type: cell-based; settings: 2.5 μM, 2 min
Experimental: as §1, §2, §3, §4

[3] = target: T2, SLC22A15 (Homo sapiens, UniProt Q8IZD6); test: Uptake ratio screen, SLC22A15-overexpressing HEK293 over empty vector cells; type: cell-based; settings: 2.5 μM (nicotine 10 μM), 2 min
T2 construct: by amplifying the entire gene-of-interest within the HEK293 genome via a long-range PCR
Experimental: as §1, §2
(§5) The intracellular drug concentrations after transport experiments were analyzed by high-performance liquid chromatography coupled to tandem mass spectrometry analysis. The HPLC consisted of a Shimadzu Nexera HPLC System with a SIL-30AC autosampler, a LC-30AD pump, a CTO-20AC column oven, and a CBM-20A controller (Shimadzu). The reverse-phase chromatography of compounds was accomplished with a Brownlee SPP RP-Amide column with 4.6 × 100 mm inner dimensions, a particle size of 2.7 μm, and a preceding Phenomenex C-18 guard column. The mobile phase was composed of an organic additive with acetonitrile:methanol 6:1 (v/v) in total concentrations between 3% and 50% (v/v) and 0.1% (v/v) formic acid in the aqueous component of the eluent. During separation, the column oven was held at 40 °C and the mobile phase was maintained at a flow rate of 300 or 400 μl/min. After separation, the detection of substances was performed with an API 4000 tandem mass spectrometer (AB SCIEX, https://sciex.com/support/software-support/software-downloads), followed by quantification of results with the Analyst software (AB SCIEX, version 1.6.2). The composition of chromatographic conditions, as well as detailed mass spectrometric detection parameters, are listed in Table S5.
as §4

[4] = target: T3, SLC35G3 (Homo sapiens, UniProt Q8N808); test: Uptake ratio screen, SLC35G3-overexpressing HEK293 over empty vector cells; type: cell-based; parameters: by amplifying the entire gene-of-interest within the HEK293 genome via a long-range PCR
[5] = target: T3, SLC35G3
[6] = target: SLC38A10 (Homo sapiens, UniProt Q9HBR0); settings: SLC38A10, HEK293, net uptake over empty vector cells
[7] = target: T4, SLC35E4 (Homo sapiens, UniProt Q6ICL7); test: Uptake ratio screen, SLC35E4-overexpressing HEK293 over empty vector cells; type: cell-based; parameters: by amplifying the entire gene-of-interest within the HEK293 genome via a long-range PCR; settings: 2.5 μM, 2 min
T4 sequence (Q6ICL7 1-350): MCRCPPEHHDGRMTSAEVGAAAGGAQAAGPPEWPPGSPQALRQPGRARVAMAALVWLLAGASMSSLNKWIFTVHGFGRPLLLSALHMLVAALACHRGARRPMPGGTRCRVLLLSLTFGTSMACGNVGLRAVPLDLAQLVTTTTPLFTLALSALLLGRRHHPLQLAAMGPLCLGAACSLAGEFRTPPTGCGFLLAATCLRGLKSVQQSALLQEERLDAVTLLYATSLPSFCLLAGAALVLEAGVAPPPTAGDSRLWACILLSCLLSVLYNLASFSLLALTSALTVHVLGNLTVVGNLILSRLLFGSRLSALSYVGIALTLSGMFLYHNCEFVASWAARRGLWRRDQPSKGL
Experimental: as §1, §2, §3, §4

[8] = target: T3, SLC35G3; settings: ratio of Vmax over KM
[9] = target: T5, SLC35F5 (Homo sapiens, UniProt Q8WV83); test: Uptake ratio screen, SLC35F5-overexpressing HEK293 over empty vector cells; type: cell-based; parameters: by amplifying the entire gene-of-interest within the HEK293 genome via a long-range PCR; settings: 2.5 μM, 2 min
T5 sequence (Q8WV83 1-523): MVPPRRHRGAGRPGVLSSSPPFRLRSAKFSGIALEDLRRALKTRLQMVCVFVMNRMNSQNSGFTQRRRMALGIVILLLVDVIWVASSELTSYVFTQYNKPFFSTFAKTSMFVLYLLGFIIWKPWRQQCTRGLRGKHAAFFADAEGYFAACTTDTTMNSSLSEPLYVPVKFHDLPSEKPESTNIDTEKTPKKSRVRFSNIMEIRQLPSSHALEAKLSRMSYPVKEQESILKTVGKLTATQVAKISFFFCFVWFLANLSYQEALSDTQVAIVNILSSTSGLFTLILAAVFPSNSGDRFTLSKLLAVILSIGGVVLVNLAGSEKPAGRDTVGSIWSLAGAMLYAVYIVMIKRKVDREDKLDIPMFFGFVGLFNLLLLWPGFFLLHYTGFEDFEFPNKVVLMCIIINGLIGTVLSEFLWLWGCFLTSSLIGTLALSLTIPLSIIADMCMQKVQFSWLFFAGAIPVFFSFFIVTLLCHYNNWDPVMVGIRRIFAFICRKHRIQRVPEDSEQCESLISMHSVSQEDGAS
Experimental: as §1, §2, §5, §4

[10] = 2.5 μM substrate, 2 min, HEK293

T3 sequence (Q8N808 whole entry): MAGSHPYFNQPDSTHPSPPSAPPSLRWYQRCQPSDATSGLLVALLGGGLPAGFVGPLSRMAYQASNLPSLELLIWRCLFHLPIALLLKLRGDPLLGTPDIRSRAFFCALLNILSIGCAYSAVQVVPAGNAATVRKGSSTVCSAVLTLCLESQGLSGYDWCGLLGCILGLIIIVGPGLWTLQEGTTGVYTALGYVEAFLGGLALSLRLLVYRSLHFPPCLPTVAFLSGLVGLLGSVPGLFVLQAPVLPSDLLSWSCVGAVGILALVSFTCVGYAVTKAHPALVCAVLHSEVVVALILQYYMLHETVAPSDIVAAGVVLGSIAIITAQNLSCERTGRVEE
T2 sequence (Q8IZD6 whole entry): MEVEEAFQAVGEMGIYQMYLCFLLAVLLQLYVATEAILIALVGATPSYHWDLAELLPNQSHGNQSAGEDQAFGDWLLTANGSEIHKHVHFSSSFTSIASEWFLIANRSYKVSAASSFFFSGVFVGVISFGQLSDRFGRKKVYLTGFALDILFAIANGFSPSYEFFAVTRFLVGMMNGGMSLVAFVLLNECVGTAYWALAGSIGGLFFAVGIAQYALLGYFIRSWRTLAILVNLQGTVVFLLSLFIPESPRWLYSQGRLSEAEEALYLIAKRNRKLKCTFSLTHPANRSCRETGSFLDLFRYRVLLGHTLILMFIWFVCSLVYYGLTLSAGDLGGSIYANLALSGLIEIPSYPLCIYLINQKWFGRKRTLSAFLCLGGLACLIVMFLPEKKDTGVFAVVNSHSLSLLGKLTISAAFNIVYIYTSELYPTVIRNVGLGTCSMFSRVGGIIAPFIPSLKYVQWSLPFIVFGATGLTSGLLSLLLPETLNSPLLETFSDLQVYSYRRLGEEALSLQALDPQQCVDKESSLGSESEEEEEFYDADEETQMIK
Sequence of SLC47A2 (Q86VL8 1-566 isoform Q86VL8-3): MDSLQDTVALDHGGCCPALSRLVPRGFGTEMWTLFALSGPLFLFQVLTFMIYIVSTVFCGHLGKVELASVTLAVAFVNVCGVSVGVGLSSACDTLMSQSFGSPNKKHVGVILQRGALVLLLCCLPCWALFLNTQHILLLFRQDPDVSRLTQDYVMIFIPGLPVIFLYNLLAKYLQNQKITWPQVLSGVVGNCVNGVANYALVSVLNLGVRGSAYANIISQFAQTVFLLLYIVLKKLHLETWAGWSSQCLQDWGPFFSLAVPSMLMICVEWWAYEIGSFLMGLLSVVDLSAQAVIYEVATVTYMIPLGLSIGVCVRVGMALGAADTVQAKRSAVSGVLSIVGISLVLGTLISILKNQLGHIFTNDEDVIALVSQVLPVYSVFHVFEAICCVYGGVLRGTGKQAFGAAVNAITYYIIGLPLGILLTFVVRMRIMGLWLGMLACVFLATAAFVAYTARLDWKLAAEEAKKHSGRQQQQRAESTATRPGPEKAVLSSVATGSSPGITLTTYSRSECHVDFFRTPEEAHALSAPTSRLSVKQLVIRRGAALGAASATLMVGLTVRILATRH
Sequence of SLC38A10 (Q9HBR0 whole entry): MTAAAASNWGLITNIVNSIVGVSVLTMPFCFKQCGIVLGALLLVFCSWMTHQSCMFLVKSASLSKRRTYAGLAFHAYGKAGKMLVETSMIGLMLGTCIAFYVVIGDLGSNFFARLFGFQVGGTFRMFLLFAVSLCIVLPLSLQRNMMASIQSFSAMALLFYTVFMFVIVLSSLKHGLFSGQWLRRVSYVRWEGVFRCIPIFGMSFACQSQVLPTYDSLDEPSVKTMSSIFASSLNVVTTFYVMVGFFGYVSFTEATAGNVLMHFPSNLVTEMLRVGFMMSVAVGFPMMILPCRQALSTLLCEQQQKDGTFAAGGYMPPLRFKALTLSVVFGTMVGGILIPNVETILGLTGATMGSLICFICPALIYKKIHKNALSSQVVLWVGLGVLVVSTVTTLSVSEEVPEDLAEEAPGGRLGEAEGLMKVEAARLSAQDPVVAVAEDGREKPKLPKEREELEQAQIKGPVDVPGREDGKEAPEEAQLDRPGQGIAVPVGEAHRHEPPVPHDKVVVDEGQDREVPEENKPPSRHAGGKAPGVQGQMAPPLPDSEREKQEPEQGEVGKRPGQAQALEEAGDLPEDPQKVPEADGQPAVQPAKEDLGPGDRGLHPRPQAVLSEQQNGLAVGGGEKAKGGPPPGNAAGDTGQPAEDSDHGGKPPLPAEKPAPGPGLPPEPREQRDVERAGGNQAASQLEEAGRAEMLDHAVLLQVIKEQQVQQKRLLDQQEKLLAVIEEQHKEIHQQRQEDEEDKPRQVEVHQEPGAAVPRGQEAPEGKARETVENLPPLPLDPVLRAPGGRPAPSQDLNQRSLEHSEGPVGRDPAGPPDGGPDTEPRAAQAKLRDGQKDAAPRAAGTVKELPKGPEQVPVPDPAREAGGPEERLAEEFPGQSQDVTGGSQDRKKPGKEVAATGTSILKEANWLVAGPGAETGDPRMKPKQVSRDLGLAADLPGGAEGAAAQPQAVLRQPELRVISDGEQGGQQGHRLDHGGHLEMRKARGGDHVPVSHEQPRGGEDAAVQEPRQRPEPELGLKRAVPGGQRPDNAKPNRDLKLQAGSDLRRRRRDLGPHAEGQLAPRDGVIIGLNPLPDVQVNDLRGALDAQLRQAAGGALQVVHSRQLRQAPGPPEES

| Structure (SMILES) | Uptake data for SLC35G3, mean value (fold-increase over empty vector control) [4, 10] | also measured |
| --- | --- | --- |
| C[C@]12CC[C@@H]3c4ccc(OS(=O)(=O)O)cc4CC[C@H]3[C@@H]1CCC2=O [estrone-3-sulfate] | – | Uptake by SLC47A1 (MATE1) (in words) [1]: confirmed to be transported; Uptake by SLC47A2 (MATE2K) (in words) [2]: confirmed to be transported |
| C[N+](C)(C)CC(O)CC(=O)[O-] (stereo not shown) [Carnitine-d9] | 1.05 | Uptake by SLC22A15 (in words) [3]: did not measure significant uptake |
| CCCNC(C)C(=O)Nc1c(C)csc1C(=O)OC (stereo not shown) [Articaine] | 2.91 | Clint (±SEM) [5]: 2.04 (±2.24) μl × mg protein^-1 × min^-1 |
| CC(N)Cc1ccccc1 (stereo not shown) [Amphetamine] | 1.28 | Vmax (±SEM) [6]: 97.4 (±11.1) pmol × mg protein^-1 × min^-1 |
| Nc1nc2c(ncn2COCCO)c(=O)[nH]1 [Acyclovir] | 1.21 | Uptake by SLC47A1 (MATE1) (in words) [1]: only transported by the MATEs; Uptake by SLC47A2 (MATE2K) (in words) [2]: only transported by the MATEs |
| CNCC[C@H](Oc1cccc2ccccc12)c1cccs1 [Duloxetine] | – | Uptake data for SLC35G3, mean value (fold-increase over empty vector control) [4]: 1.26 |
| CCN(CC)CCNC(=O)c1cc(Cl)c(N)cc1OC [Metoclopramide] | 1.44 | – |
| OCCOCCN1CCN(C2=Nc3ccccc3Sc3ccccc32)CC1 [Quetiapine] | 1.37 | – |
| CCCN(CCC)CCc1cccc2c1CC(=O)N2 [Ropinirole] | 1.37 | – |
| COc1ccc(OC)c(C(O)CNC(=O)CN)c1 (stereo not shown) [Midodrine] | 1.33 | – |
| CC(C)C[C@H](N)C(=O)O [leucine] | – | Uptake by SLC35E4 (in words) [7]: minor |
| C[N+]1(CC2CC2)CC[C@]23c4c5ccc(O)c4O[C@H]2C(=O)CC[C@@]3(O)[C@H]1C5 (stereo partly shown) [Methylnaltrexon] | 1.36 | – |
| COc1cc(CCN)cc(OC)c1OC [Mescaline] | – | Uptake data for SLC35G3, mean value (fold-increase over empty vector control) [4]: 1.34 |
| CCOC(=O)C1(c2ccccc2)CCN(C)CC1 [Meperidine] | – | Uptake by SLC22A15 (in words) [3]: significantly increased the uptake; Clint (±SEM) [8]: 4.60 (±4.78) μl × mg protein^-1 × min^-1 |
| CCCN1CCCC[C@H]1C(=O)Nc1c(C)cccc1C [Ropivacaine] | 3.07 | Clint (±SEM) [5]: 3.64 (±1.93) μl × mg protein^-1 × min^-1 |
| N[C@@H]1CON=C1O [Cycloserine (D-), Cycloserine] | 0.93 | – |

| Structure (SMILES) | Uptake data for SLC35G3, mean value (fold-increase over empty vector control) [4, 10] | also measured |
| --- | --- | --- |
| CCOC(=O)[C@]1(c2ccccc2)CCC=C[C@H]1NC [Nortilidine] | 2.87 | – |
| C[N+](C)(C)[C@@H](Cc1c[nH]c(=S)[nH]1)C(=O)[O-] [Ergothionine] | 1.67 | Uptake by SLC22A15 (in words) [3]: did not measure significant uptake |
| CC(CN(C)C)CN1c2ccccc2CCc2ccccc21 (stereo not shown) [Trimipramine] | 1.47 | – |
| COc1ccc(C(CN(C)C)C2(O)CCCCC2)cc1 (stereo not shown) [Venlafaxine] | 1.60 | – |
| N[C@@H]1CON=C1O [Cycloserine (L-), Cycloserine] | 1.11 | – |
| COc1ccc2c(c1)N(C[C@H](C)CN(C)C)c1ccccc1S2 [Levomepromazine] | 1.30 | – |
| COc1ccc2c3c1O[C@H]1C(=O)CC[C@H]4[C@@H](C2)N(C)CC[C@]314 [Hydrocodone] | 1.71 | – |
| CC12CC3CC(C)(C1)CC(N)(C3)C2 [Memantine] | 1.19 | – |
| Cc1nc2n(c(=O)c1CCN1CCC(c3noc4cc(F)ccc34)CC1)CCCC2 [Risperidone] | 1.41 | – |
| C=C1CC[C@@]2(O)[C@H]3Cc4ccc(O)c5c4[C@@]2(CCN3CC2CC2)[C@H]1O5 [Nalmefen] | 1.99 | – |
| CN(C)CCc1c[nH]c2ccc(C[C@H]3COC(=O)N3)cc12 [Zolmitriptan] | 1.27 | – |
| CCN(CC)C(=O)C1(c2ccccc2)CC1CN (stereo not shown) [Milnacipran] | 1.31 | – |
| CNCC[C@@H](Oc1ccccc1C)c1ccccc1 [Atomoxetine] | 1.26 | – |
| CNC(C)Cc1ccc2c(c1)OCO2 (stereo not shown) [MDMA, 3,4-methylenedioxymethamphetamine] | – | Uptake by SLC22A15 (in words) [3]: significantly increased the uptake; Uptake data for SLC35G3, mean value (fold-increase over empty vector control) [4]: 1.58; Uptake by SLC35F5 (in words) [9]: highest uptake rates; Clint (±SEM) [8]: 4.31 (±2.26) μl × mg protein^-1 × min^-1 |
| CN(C)CCOC(C)(c1ccccc1)c1ccccn1 (stereo not shown) [Doxylamine] | 1.10 | – |
